Experimental data as given in paper PMC10245146, “CNS4 causes subtype‐specific changes in agonist efficacy and reversal potential of permeant cations in NMDA receptors” (Pharmacology Research & Perspectives, 2023).
Several values for one entry are separate records, joined by “and”; a condition that tells them apart may be missing. Equal values may be shown once.

Experiments:
GluN1/2A NMDA receptors = target: T1, GluN1/2A NMDA receptors (UniProt P35439+Q12879); test: TEVC antagonist block of agonist-induced currents, 1/2A; type: cell-based; details: 100 μM glutamate and glycine, n = 7 (7)
T1 construct: expressed in transfected cells; host or cells: Xenopus oocytes (cRNA injection)
Protocol: (§1) Electrophysiological responses were measured using a standard two‐microelectrode voltage‐clamp workstation (Warner Instruments model OC‐725C) designed to provide a fast clamp of large cells. The recording buffer contained 116 mM NaCl, 2 mM KCl, 0.3 mM BaCl2, and 5 mM HEPES, pH 7.4. Response magnitude was determined in Xenopus oocytes expressing different NMDA receptor subunits (GluN1/2A, 1/2B, 1/2C, 1/2D, and 1/2A/2B) by the steady plateau response elicited by bath application of different agonist concentrations. […] All data points were obtained from the steady state currents unless stated otherwise. Dose–response relationships were fit to an appropriate curve‐fitting equation using GraphPad Prism‐7. Non‐linear regression was used to calculate EC50, IC50, and fold change or percentage maximal response. Curves were fit using the following equations as performed in the previous studies, [37]: Y=100/1+10^LogEC50−XorY=Bottom+Top−Bottom/1+10^LogEC50−X . Statistical significance was determined at the overall alpha level 0.05, using appropriate statistical methods as described in all figure captions. Technical and biological replicates are explicitly mentioned in each figure legend, as n = X (Y). X represents technical repeats (number of traces) and Y represents biological repeats (number of oocytes or HEK293T cells studied). […] For the data sets with nonparametric distribution, Wilcoxon signed rank test is a nonparametric test was used (Figure 1). Paired or unpaired t‐tests were for used only compare the datasets obtained with and without CNS4 dose response curves.
(§2) If CNS4 directly competes with GluN1 or GluN2 competitive antagonists or indirectly influences the activity, there should be a change in DCKA and/ or DL‐AP5 activity in blocking agonist‐induced currents.
FIGURE 4 Effect of CNS4 on competitive and uncompetitive NMDA receptor antagonists. […] A similar experiment was performed with 100 μM DL‐AP5. […] Paired student‐t test was performed to calculate the statistical significance. […] Unpaired student‐t test was performed to calculate the statistical significance. *p < .05; NS, not significant.

GluN1/2D NMDA receptors = target: T2, GluN1/2D NMDA receptors (UniProt O15399+P35439); test: TEVC antagonist block of agonist-induced currents, 1/2D; type: cell-based; details: 100 μM glutamate and glycine
T2 construct: host or cells: Xenopus oocytes (cRNA injection)
Protocol: as §1, §2
FIGURE 4 Effect of CNS4 on competitive and uncompetitive NMDA receptor antagonists. […] A similar experiment was performed with 100 μM DL‐AP5. […] Paired student‐t test was performed to calculate the statistical significance. […]

1/2A NMDA receptor = details: read-out: Glutamate potency EC50; cited from earlier work
1/2D NMDA receptor = details: read-out: Glutamate potency EC50; cited from earlier work
[1] = system: GluN1/2A/2B triheteromeric (1/2AB) NMDA receptors; test: TEVC agonist dose-response, Xenopus oocytes expressing 1/2AB; type: cell-based; details: without CNS4; 100 μM glutamate constant; relative to 1 μM glycine
From the text: NMDA receptor constructs: cDNA encoding the NMDA receptor1a subunit (GluN1a) was obtained from Dr. Nakanishi (Kyoto, Japan). cDNA encoding the GluN2B (pci_sepGluN2B), originally developed in the Malinow lab,[33] was purchased from Addgene (cat# 23998), Cambridge, MA. cDNA encoding the GluN2C and GluN2D were purchased from GenScript, New Jersey, USA. Mutated GluN1, 2A and 2B cDNA constructs capable of assembling as GluN1/2A/2B triheteromeric (1/2AB) receptors[34] were obtained from Dr. Paoletti (Laboratoire de Neurobiologie, CNRS). These constructs have been previously tested for 1/2AB receptor activity of GluN1/2A receptor‐selective potentiators.[35] […] Plasmids were linearized with NotI (GluN1a and all five GluN1 mutants) or Avrll (GluN2B), or BstB1 (GluN2C and GluN2D) and transcribed in vitro with T7 (GluN1a, GluN1/2A, GluN2B, GluN2C & GluN2D), and SP6 (GluN1 mutants) RNA polymerase using the mMessage mMachine transcription kits (Invitrogen by Thermo Fisher Scientific).
Stage IV frog oocytes were obtained from Xenopus‐I, (Ann Arbor, MI, USA). NMDA receptor subunit cRNAs were suspended in nuclease free sterile water. GluN1A, GluN2B, GluN2C, GluN2D and GluN1/2A/2B cRNAs were mixed in a ratio of 1:1–3. 50 nL of the final cRNA mixture was microinjected (40–70 ng total) into the oocyte cytoplasm. Oocytes were incubated in ND‐96 solution at 18°C prior to electrophysiological recordings (2–5 days).
Electrophysiological responses were measured using a standard two‐microelectrode voltage‐clamp workstation (Warner Instruments model OC‐725C) designed to provide a fast clamp of large cells. The recording buffer contained 116 mM NaCl, 2 mM KCl, 0.3 mM BaCl2, and 5 mM HEPES, pH 7.4. Response magnitude was determined in Xenopus oocytes expressing different NMDA receptor subunits (GluN1/2A, 1/2B, 1/2C, 1/2D, and 1/2A/2B) by the steady plateau response elicited by bath application of different agonist concentrations. […] All data points were obtained from the steady state currents unless stated otherwise. Dose–response relationships were fit to an appropriate curve‐fitting equation using GraphPad Prism‐7. Non‐linear regression was used to calculate EC50, IC50, and fold change or percentage maximal response. Curves were fit using the following equations as performed in the previous studies, [37]: Y=100/1+10^LogEC50−XorY=Bottom+Top−Bottom/1+10^LogEC50−X . Statistical significance was determined at the overall alpha level 0.05, using appropriate statistical methods as described in all figure captions. Technical and biological replicates are explicitly mentioned in each figure legend, as n = X (Y). X represents technical repeats (number of traces) and Y represents biological repeats (number of oocytes or HEK293T cells studied). […]

[2] = 100 μM antagonist plus 100 μM CNS4

T1 sequence (Q12879 23-1464, other chains not shown): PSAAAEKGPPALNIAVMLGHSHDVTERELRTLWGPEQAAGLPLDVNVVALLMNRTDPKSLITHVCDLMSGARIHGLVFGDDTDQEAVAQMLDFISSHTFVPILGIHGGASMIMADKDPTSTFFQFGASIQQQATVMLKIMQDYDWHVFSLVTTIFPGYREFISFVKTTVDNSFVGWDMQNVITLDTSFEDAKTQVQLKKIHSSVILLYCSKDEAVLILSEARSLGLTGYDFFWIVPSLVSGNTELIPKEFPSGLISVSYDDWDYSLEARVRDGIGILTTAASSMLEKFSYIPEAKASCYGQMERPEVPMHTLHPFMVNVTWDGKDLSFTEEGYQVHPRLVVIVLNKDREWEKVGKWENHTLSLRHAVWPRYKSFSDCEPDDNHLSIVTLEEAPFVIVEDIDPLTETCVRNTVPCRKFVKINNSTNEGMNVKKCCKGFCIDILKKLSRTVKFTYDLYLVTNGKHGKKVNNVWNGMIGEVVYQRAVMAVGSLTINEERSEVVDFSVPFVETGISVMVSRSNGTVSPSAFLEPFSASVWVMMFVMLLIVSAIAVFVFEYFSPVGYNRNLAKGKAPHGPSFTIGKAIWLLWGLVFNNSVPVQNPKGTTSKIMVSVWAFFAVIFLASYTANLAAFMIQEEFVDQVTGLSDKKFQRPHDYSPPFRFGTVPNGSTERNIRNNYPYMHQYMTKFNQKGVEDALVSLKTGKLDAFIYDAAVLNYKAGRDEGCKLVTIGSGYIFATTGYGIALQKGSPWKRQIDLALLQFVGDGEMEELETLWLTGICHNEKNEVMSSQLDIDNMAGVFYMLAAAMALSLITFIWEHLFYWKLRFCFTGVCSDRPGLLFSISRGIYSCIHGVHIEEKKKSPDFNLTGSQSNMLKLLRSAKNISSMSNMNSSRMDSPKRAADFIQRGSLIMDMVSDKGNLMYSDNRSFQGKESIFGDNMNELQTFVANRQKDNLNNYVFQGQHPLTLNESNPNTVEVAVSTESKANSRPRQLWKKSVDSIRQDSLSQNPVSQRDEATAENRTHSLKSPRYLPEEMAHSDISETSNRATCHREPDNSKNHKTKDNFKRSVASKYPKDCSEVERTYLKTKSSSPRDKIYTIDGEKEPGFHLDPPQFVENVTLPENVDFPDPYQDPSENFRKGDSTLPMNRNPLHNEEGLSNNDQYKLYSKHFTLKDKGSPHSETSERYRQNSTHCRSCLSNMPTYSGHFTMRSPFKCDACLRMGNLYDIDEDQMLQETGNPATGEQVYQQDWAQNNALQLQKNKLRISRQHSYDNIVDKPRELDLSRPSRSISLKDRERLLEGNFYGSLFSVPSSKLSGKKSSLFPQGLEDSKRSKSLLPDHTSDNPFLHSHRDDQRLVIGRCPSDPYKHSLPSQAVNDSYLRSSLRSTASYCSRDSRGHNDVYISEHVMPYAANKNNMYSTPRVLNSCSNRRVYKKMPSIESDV
T2 sequence (O15399 28-1336, other chains not shown): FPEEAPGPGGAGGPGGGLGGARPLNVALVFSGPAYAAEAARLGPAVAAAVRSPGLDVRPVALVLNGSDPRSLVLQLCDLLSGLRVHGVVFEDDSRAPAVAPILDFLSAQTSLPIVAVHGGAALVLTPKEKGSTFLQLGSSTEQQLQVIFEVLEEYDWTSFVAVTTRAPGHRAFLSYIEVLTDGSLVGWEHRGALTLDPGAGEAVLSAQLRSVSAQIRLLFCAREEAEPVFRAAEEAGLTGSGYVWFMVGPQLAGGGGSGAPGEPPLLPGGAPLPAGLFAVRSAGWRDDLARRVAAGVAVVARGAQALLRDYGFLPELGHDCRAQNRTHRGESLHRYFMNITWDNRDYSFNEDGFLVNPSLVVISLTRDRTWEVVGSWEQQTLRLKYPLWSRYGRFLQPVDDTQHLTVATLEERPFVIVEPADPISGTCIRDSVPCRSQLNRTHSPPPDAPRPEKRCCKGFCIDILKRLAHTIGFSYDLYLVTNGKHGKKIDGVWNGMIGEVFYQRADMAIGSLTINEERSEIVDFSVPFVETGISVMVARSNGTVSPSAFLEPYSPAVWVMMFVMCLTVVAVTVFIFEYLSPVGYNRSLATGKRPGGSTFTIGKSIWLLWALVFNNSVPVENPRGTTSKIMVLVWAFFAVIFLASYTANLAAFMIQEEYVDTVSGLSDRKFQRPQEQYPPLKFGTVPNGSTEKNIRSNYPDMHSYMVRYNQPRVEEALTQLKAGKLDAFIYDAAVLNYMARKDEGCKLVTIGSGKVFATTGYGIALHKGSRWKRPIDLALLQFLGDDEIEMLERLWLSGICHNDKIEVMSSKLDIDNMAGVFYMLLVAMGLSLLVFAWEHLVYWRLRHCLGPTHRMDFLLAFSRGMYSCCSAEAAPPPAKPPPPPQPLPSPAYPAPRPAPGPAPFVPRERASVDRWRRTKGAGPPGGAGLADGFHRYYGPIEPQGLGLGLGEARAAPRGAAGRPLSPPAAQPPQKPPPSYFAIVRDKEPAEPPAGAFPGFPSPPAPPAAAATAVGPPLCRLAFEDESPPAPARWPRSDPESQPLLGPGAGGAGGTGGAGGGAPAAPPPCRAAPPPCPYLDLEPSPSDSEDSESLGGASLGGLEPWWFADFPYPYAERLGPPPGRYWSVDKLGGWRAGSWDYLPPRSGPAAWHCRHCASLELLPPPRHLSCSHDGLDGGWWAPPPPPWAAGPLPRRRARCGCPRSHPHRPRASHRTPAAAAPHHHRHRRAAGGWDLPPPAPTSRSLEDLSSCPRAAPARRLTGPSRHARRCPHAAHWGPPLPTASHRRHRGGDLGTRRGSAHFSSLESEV

| SMILES | Block of agonist-induced currents (GluN1/2A NMDA receptors; 100 μM antagonist alone) | Block of agonist-induced currents (GluN1/2A NMDA receptors; [2]) | Block of agonist-induced currents (GluN1/2D NMDA receptors; 100 μM antagonist alone) | Block of agonist-induced currents (GluN1/2D NMDA receptors; [2]) | EC50 (1/2A NMDA receptor) | EC50 (1/2D NMDA receptor) | Glycine efficacy: relative fold change in current at highest glycine concentration [1] |
| --- | --- | --- | --- | --- | --- | --- | --- |
| NC(CCCP(=O)(O)O)C(=O)O (stereo not drawn) [DL‐AP5] | 39.53 ± 1.22% and ~ 39% | 38.10 ± 1.28% | 18.28 ± 10.47% and ~ 18% | 5.96 ± 10.59% | – | – | – |
| O=C(O)c1cc(=O)c2c(Cl)cc(Cl)cc2[nH]1 [DCKA] | 97.85 ± 0.66% | 98.98 ± 0.21% | – | 62.09 ± 2.27% | – | – | – |
| N[C@@H](CCC(=O)O)C(=O)O [glutamate, L‐glutamate] | – | – | – | – | ~3000 nM | ~500 nM | – |
| NCC(=O)O [glycine, reference compound] | – | – | – | – | – | – | 2.37 ± 0.23 fold |
